Data from patent US20120202849A1, “PHARMACEUTICAL COMPOSITIONS FOR THE TREATMENT/PROPHYLAXIS OF NON-ALCOHOLIC FATTY LIVER DISEASE” (priority 2009, published 2012).

Assays:
[1] = test system: fructose induced fatty liver; test: Fructose induced fatty liver (NAFLD) in rats: biochemical parameters, body and liver weight, liver index after 14 days oral treatment; type: in vivo, Wistar rats; settings: monotherapy or high dose combination: HCQ 160 mg/kg, ATV 8 mg/kg, MET 500 mg/kg, Mean ± S.D.; for Alk. PO4: alkaline phosphatase; for Glucose: blood; for Liver Index: calculated from body weight and liver weight; for TC (Total Cholesterol) / TG (Triglyceride): serum
Text: The study was based on the experiment on rats with fatty liver induced by fructose feeding and given oral doses of different strengths of the corresponding drug samples for 14 days. It was concluded from the study that the protection given by the combination therapy is more as compared to monotherapy. […] In this experiment 66 Wistar rats weighing 150-200 g of either sex were divided randomly into 11 groups consisting of six rats each. […] Group 7 was NAFLD induced and treated with high dose combination of HCQ (160 mg/kg) and MET (500 mg/kg). Group 8 was NAFLD induced and treated with low dose combination of HCQ (80 mg/kg) and ATV (4 mg/kg). Group 9 was NAFLD induced and treated with high dose combination of HCQ (160 mg/kg) and ATV (8 mg/kg). Group 10 was NAFLD induced and treated with low dose combination of ATV (4 mg/kg), HCQ (80 mg/kg) and MET (250 mg/kg) whereas Group 11 was NAFLD induced and treated with high dose combination of ATV (8 mg/kg), HCQ (160 mg/kg) and MET (500 mg/kg). […] At the end of the therapy histopathological evaluations were performed.

[2] = test system: fructose induced fatty liver; test: Histopathological examination of NAFLD induced liver tissue; type: in vivo, Wistar rats; settings: after 14 days; monotherapy or high dose combination: HCQ 160 mg/kg p.o., ATV 8 mg/kg p.o., MET 500 mg/kg
Description: In this experiment 66 Wistar rats weighing 150-200 g of either sex were divided randomly into 11 groups consisting of six rats each. Group 1 (normal control) consisted of normal rats that neither received fructose nor any drug, Group 2 served as NAFLD induced control (NAFLD was induced in rats by replacing water with 10% fructose solution for two weeks) which received vehicle orally, Group 3 was NAFLD induced and treated with HCQ (160 mg/kg), Group 4 was NAFLD induced and treated with ATV (8 mg/kg), Group 5 was NAFLD induced and treated with MET (500 mg/kg), Group 6 was NAFLD induced and treated with low dose combination of HCQ (80 mg/kg) and MET (250 mg/kg). Group 7 was NAFLD induced and treated with high dose combination of HCQ (160 mg/kg) and MET (500 mg/kg). Group 8 was NAFLD induced and treated with low dose combination of HCQ (80 mg/kg) and ATV (4 mg/kg). Group 9 was NAFLD induced and treated with high dose combination of HCQ (160 mg/kg) and ATV (8 mg/kg). Group 10 was NAFLD induced and treated with low dose combination of ATV (4 mg/kg), HCQ (80 mg/kg) and MET (250 mg/kg) whereas Group 11 was NAFLD induced and treated with high dose combination of ATV (8 mg/kg), HCQ (160 mg/kg) and MET (500 mg/kg). The study drugs suspended in vehicle [0.1% w/v suspension of Tween 80 and carboxymethylcellulose (CMC) in water] were administered for 14 days. After 14 days treatment, all the animals were sacrificed under chloroform anesthesia and blood was collected for determination of blood glucose levels, triglyceride levels, SGPT, SGOT, alkaline phosphatase and total cholesterol using autoanalyser (Microlab 2000) Liver index was also calculated based upon the body weight and liver weight. At the end of the therapy histopathological evaluations were performed.

[3] = patients on combined insulin and hydroxychloroquine therapy; average; cited from earlier work
[4] = patients treated with hydroxychloroquine; cited from earlier work

| SMILES | Alk. PO4 [1] [U/L] | Glucose [1] [mg/dL] | Liver Index [1] | SGOT [1] [U/L] | SGPT [1] [U/L] | TC (Total Cholesterol) [1] [mg/dL] | TG (Triglyceride) [1] [mg/dL] | Histopathological examination of liver [2] | Reduction of daily insulin dose [3] [%] | Decrease in serum levels of cholesterol [4] | Liver Weight [1] [g] |
| --- | --- | --- | --- | --- | --- | --- | --- | --- | --- | --- | --- |
| CC(C)c1c(C(=O)Nc2ccccc2)c(-c2ccccc2)c(-c2ccc(F)cc2)n1CC[C@@H](O)C[C@@H](O)CC(=O)O [ATV, Atorvastatin] | 54.66 ± 2.58 | 159.33 ± 9.07 | 3.20 ± 0.24 | 114.00 ± 3.50 | 37.5 ± 2.42 | 137.66 ± 5.20 | 463.33 ± 12.12 | the degree of hepatic injury including steatosis and fatty infiltration were attenuated | – | – | – |
| CCN(CCO)CCCC(C)Nc1ccnc2cc(Cl)ccc12 (stereo not shown) [HCQ, Hydroxychloroquine] | 63.16 ± 4.07 | 157.16 ± 7.93 | 4.53 ± 0.10 | 137.83 ± 10.59 | 44.83 ± 2.78 | 159.66 ± 10.23 | 556.66 ± 12.21 | did not show any recovery from fatty change | 30 | approximately 10% | 7.64 ± 0.33 |
| CN(C)C(=N)N=C(N)N [MET, Metformin] | 61 ± 6.32 | 125.16 ± 6.24 | 4.50 ± 0.30 | 132.33 ± 8.98 | 43.66 ± 7.33 | 155.66 ± 10.85 | 516.33 ± 56.25 | Liver cells showed regeneration and repair in the form of nucleolation and absence of coarse fat vacuoles | – | – | 7.63 ± 0.30 |
